# Assay results reported in ChEMBL document CHEMBL5236599, “Design, synthesis and biological evaluation of cajanonic acid A analogues as potent PPAR γ antagonists” (Bioorg Med Chem Lett, 2023).
# Legend:
# [1] = Induction of insulin-sensitizing activity in insulin-resistant mouse 3T3-L1 cells assessed as increase in glucose consumption at 0.1 uM relative to control; type: functional
# Mus musculus = species on record: Mus musculus; test: Hypoglycemic activity in db/db mouse assessed as AUC of blood glucose level by oral glucose tolerance test (reference value: 114.8 mmol.min/L); type: functional
# [2] = Induction of insulin-sensitizing activity in insulin-resistant human HepG2 cells assessed as increase in glucose consumption at 0.1 uM relative to control; type: functional
# [3] = Induction of insulin-sensitizing activity in insulin-resistant mouse 3T3-L1 cells assessed as glucose consumption at 0.1 uM (reference value: 3.354 +/- 0.342 mM); type: functional
# [4] = molecular target: T1, Peroxisome proliferator-activated receptor gamma (Homo sapiens) (UniProt P37231); test: Antagonist activity at PPAR-gamma (unknown origin) transfected in human HEK293 cells assessed as decrease in rosiglitazone-induced receptor transactivation at 10 uM by dual-luciferase reporter gene assay relative to control; type: cell-based; settings: filed as antagonist
# T1 sequence (whole entry): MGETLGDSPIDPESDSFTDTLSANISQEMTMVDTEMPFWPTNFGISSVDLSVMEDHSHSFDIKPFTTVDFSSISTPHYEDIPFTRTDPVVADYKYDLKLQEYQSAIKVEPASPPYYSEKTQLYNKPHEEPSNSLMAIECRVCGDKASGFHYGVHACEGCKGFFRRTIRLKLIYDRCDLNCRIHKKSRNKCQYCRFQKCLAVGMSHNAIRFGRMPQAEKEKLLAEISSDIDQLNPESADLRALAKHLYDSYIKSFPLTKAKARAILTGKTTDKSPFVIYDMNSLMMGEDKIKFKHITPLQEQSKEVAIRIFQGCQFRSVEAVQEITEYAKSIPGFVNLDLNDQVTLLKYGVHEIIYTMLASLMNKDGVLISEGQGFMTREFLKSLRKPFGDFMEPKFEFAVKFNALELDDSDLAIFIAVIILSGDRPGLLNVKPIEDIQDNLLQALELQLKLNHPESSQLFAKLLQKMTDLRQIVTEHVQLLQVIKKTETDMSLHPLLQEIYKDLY
# [5] = molecular target: T1, Peroxisome proliferator-activated receptor gamma (Homo sapiens); test: Antagonist activity at PPAR-gamma (unknown origin) transfected in human HEK293 cells assessed as decrease in rosiglitazone-induced receptor transactivation at 1 uM by dual-luciferase reporter gene assay relative to control; type: cell-based; settings: filed as antagonist
# [6] = molecular target: T2, Peroxisome proliferator-activated receptor gamma (Mus musculus, UniProt P37238); test: Agonist activity at PPAR-gamma in mouse 3T3-L1 cells assessed as increase in adipogenesis by measuring increase in oil red staining at 1 uM by Oil-red O staining based analysis relative to control; type: toxicity, cell-based; settings: 3t3-l1, 1 µM
# T2 sequence (P37238 whole entry): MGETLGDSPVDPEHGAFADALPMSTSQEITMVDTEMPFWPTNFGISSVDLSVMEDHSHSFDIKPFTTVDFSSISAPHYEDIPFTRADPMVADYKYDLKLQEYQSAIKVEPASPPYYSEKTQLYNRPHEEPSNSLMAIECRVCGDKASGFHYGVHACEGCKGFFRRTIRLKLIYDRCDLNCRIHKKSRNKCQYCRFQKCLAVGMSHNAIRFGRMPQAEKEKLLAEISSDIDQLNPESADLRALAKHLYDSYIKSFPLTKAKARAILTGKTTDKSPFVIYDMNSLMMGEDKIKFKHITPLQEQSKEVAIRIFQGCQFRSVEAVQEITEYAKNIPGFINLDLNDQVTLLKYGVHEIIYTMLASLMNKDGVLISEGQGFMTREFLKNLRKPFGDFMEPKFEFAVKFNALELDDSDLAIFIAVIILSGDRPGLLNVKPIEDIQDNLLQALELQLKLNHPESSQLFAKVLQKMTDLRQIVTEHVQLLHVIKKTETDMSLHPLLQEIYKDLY
# [7] = Induction of insulin-sensitizing activity in insulin-resistant human HepG2 cells assessed as glucose consumption at 0.1 uM (reference value: 5.83 +/-0.101 mM); type: functional
# [8] = Induction of insulin-sensitizing activity in insulin-resistant mouse 3T3-L1 cells assessed as increase in glucose consumption at 0.1 uM relative to rosiglitazone; type: functional
# [9] = molecular target: T3, Peroxisome proliferator-activated receptor gamma (Homo sapiens, UniProt P37231); test: Displacement of Fluormone Pan-PPAR Green from human recombinant GST-tagged PPARgamma LBD (201 to 475 residues) expressed in insect cells incubated for 2 hrs in dark by LantahScreen TR-FRET assay
# T3 sequence (P37231 whole entry): T1 sequence (whole entry)
inhibition [4],inhibition [5],IC50 [9],SMILES,Activity [1],AUC (Mus musculus),Activity [2],Activity [3],Activity [6],Activity [7],fold change (FC) [8]
96.2%,50.2%,–,COc1cc(O)c(C(=O)O)c(CC(=O)c2cccc(-c3ccccc3Cl)c2)c1CC=C(C)C,72.61%,106 mmol·min/L,33.27%,6.471 mM,7.04%,7.771 mM,1.6
–,–,108 nM,Cc1c(C)n(Cc2ccc(C(C)(C)C(=O)O)cc2)c2ccc(C(=O)N[C@@H](C)c3cccc(C4CC4)c3)cc12,–,–,–,–,–,–,–
